What was measured:
Format in all cases: in vivo
[1] = system: green foxtail (Setaria viridis (L.) P. Beauv.); assay: Test Example 2: herbicidal effect by soil application to upland field; settings: soil surface spray, upland field soil, 1,000 g active ingredient per hectare, 21st day after application
Description: (§1) [table] Test Example 2 Test on Herbicidal Effect by Soil Application to Upland field In a 80 cm2 plastic pot, field soil was filled. Seeds of barnyardgrass (Echinochloa crus-galli (L.) P. Beauv. var. crus-galli), green foxtail (Setaria viridis (L.) P. Beauv.), velvetleaf (Abutilon theophrasti medicus), and slender amaranth (Amaranthus viridis L.) were sown and covered with soils. The wettable powder prepared according to Formulation Example 1 was diluted in water and a 1,000 liter equivalent amount per 1 hectare so that the active ingredient becomes 1,000 g per 1 hectare was uniformly sprayed on a soil surface using a small sprayer. Then, on the 21st day after the application to the plants grew in a greenhouse, the herbicidal effect was examined in accordance with a standard shown in Table 34.

[2] = system: velvetleaf (Abutilon theophrasti medicus); assay: as above; settings: soil surface spray, upland field soil, 1,000 g active ingredient per hectare, 21st day after application
Description: as §1

[3] = system: barnyardgrass (Echinochloa crus-galli (L.) P. Beauv. var. crus-galli); assay: as above; settings: soil surface spray, upland field soil, 1,000 g active ingredient per hectare, 21st day after application
Description: as §1

[4] = system: slender amaranth (Amaranthus viridis L.); assay: as above; settings: soil surface spray, upland field soil, 1,000 g active ingredient per hectare, 21st day after application
Description: as §1

[5] = system: Japanese bulrush (Scirpus juncoides Roxb.); assay: Test Example 1: herbicidal effect by soil application to paddy field; settings: for herbicidal effect, Scirpus juncoides Roxb.: paddy field soil application, active ingredient 1,000 g per 1 hectare, wettable powder added dropwise to water surface the day after sowing, examined on the 21st day after application; for herbicidal effect (index), Scirpus juncoides Roxb.: soil application to paddy field, rated by standard of Table 34
Method in brief: (§2)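 Under greenhouse conditions, seeds sown on puddled paddy soil in 100 cm2 pots under 3 cm of standing water received the test compound; injury was assessed with a standard scoring scheme three weeks (day 21) after treatment.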

[6] = system: heartshape false pickerelweed (Monochoria vaginalis (Burm.f.) C.Presl); assay: as above; settings: for herbicidal effect, Monochoria vaginalis (Burm. f.) C. Presl: paddy field soil application, active ingredient 1,000 g per 1 hectare, wettable powder added dropwise to water surface the day after sowing, examined on the 21st day after application; for herbicidal effect (index), Monochoria vaginalis (Burm.f.) C.Presl: soil application to paddy field, rated by standard of Table 34
Method in brief: as §2

[7] = system: early watergrass (Echinochloa oryzicola Vasing); assay: as above; settings: for herbicidal effect, Echinochloa oryzicola Vasing: paddy field soil application, active ingredient 1,000 g per 1 hectare, wettable powder added dropwise to water surface the day after sowing, examined on the 21st day after application; for herbicidal effect (index), Echinochloa oryzicola Vasing: soil application to paddy field, rated by standard of Table 34
Method in brief: as §2

Structure (SMILES): CC(=O)Oc1c(C(=O)c2ccc(C(F)(F)F)n(-c3cc([N+](=O)[O-])ccc3F)c2=O)cnn1C [IV-89]
- herbicidal effect (index), Green Foxtail [1]: 4 (70 to less than 90% of herbicidal effect and crop phytotoxicity)
- herbicidal effect (index), Velvetleaf [2]: 5 (90% or more of herbicidal effect and crop phytotoxicity)
- herbicidal effect (index), Barnyardgrass [3]: 5 (90% or more of herbicidal effect and crop phytotoxicity)
- herbicidal effect (index), Slender Amaranth [4]: 4 (70 to less than 90% of herbicidal effect and crop phytotoxicity)
- herbicidal effect, Scirpus juncoides Roxb. [5]: 4 (70 to less than 90% of herbicidal effect and crop phytotoxicity)
- herbicidal effect, Monochoria vaginalis (Burm. f.) C. Presl [6]: 5 (90% or more of herbicidal effect and crop phytotoxicity)
- herbicidal effect, Echinochloa oryzicola Vasing [7]: 4 (70 to less than 90% of herbicidal effect and crop phytotoxicity)

Structure (SMILES): COC1=C(C(=O)c2ccc(C(F)(F)F)n(C)c2=O)C(=O)CCC1 [II-22]
- herbicidal effect (index), Green Foxtail [1]: 4 (70 to less than 90% of herbicidal effect and crop phytotoxicity)
- herbicidal effect (index), Velvetleaf [2]: 5 (90% or more of herbicidal effect and crop phytotoxicity)
- herbicidal effect (index), Barnyardgrass [3]: 4 (70 to less than 90% of herbicidal effect and crop phytotoxicity)
- herbicidal effect (index), Slender Amaranth [4]: 5 (90% or more of herbicidal effect and crop phytotoxicity)
- herbicidal effect, Scirpus juncoides Roxb. [5]: 5 (90% or more of herbicidal effect and crop phytotoxicity)
- herbicidal effect, Monochoria vaginalis (Burm. f.) C. Presl [6]: 5 (90% or more of herbicidal effect and crop phytotoxicity)
- herbicidal effect, Echinochloa oryzicola Vasing [7]: 5 (90% or more of herbicidal effect and crop phytotoxicity)

Structure (SMILES): CCCS(=O)(=O)Oc1c(C(=O)c2ccc(C(F)(F)F)n(-c3ccc(F)c(F)c3)c2=O)cnn1C [IV-87]
- herbicidal effect (index), Green Foxtail [1]: 5 (90% or more of herbicidal effect and crop phytotoxicity)
- herbicidal effect (index), Velvetleaf [2]: 5 (90% or more of herbicidal effect and crop phytotoxicity)
- herbicidal effect (index), Barnyardgrass [3]: 5 (90% or more of herbicidal effect and crop phytotoxicity)
- herbicidal effect (index), Slender Amaranth [4]: 5 (90% or more of herbicidal effect and crop phytotoxicity)
- herbicidal effect, Scirpus juncoides Roxb. [5]: 5 (90% or more of herbicidal effect and crop phytotoxicity)
- herbicidal effect, Monochoria vaginalis (Burm. f.) C. Presl [6]: 5 (90% or more of herbicidal effect and crop phytotoxicity)
- herbicidal effect, Echinochloa oryzicola Vasing [7]: 5 (90% or more of herbicidal effect and crop phytotoxicity)

Structure (SMILES): CCn1c(C(F)(F)Cl)ccc(C(=O)C2=C(O)CCCC2=O)c1=O [I-226]
- herbicidal effect (index), Green Foxtail [1]: 3 (50 to less than 70% of herbicidal effect and crop phytotoxicity)
- herbicidal effect (index), Velvetleaf [2]: 5 (90% or more of herbicidal effect and crop phytotoxicity)
- herbicidal effect (index), Barnyardgrass [3]: 4 (70 to less than 90% of herbicidal effect and crop phytotoxicity)
- herbicidal effect (index), Slender Amaranth [4]: 5 (90% or more of herbicidal effect and crop phytotoxicity)
- herbicidal effect, Scirpus juncoides Roxb. [5]: 5 (90% or more of herbicidal effect and crop phytotoxicity)
- herbicidal effect, Monochoria vaginalis (Burm. f.) C. Presl [6]: 5 (90% or more of herbicidal effect and crop phytotoxicity)
- herbicidal effect, Echinochloa oryzicola Vasing [7]: 5 (90% or more of herbicidal effect and crop phytotoxicity)

Structure (SMILES): CCCS(=O)(=O)Oc1c(C(=O)c2ccc(C(F)(F)F)n(CC3CCCO3)c2=O)cnn1CC (centres unmarked) [IV-207]
- herbicidal effect (index), Green Foxtail [1]: 5 (90% or more of herbicidal effect and crop phytotoxicity)
- herbicidal effect (index), Velvetleaf [2]: 5 (90% or more of herbicidal effect and crop phytotoxicity)
- herbicidal effect (index), Barnyardgrass [3]: 5 (90% or more of herbicidal effect and crop phytotoxicity)
- herbicidal effect (index), Slender Amaranth [4]: 5 (90% or more of herbicidal effect and crop phytotoxicity)
- herbicidal effect, Scirpus juncoides Roxb. [5]: 5 (90% or more of herbicidal effect and crop phytotoxicity)
- herbicidal effect, Monochoria vaginalis (Burm. f.) C. Presl [6]: 5 (90% or more of herbicidal effect and crop phytotoxicity)
- herbicidal effect, Echinochloa oryzicola Vasing [7]: 5 (90% or more of herbicidal effect and crop phytotoxicity)

Structure (SMILES): N#CC(C(=O)c1ccc(C(F)(F)F)n(-c2ccccc2)c1=O)=C(O)C1CC1 [V-23]
- herbicidal effect (index), Green Foxtail [1]: 5 (90% or more of herbicidal effect and crop phytotoxicity)
- herbicidal effect (index), Velvetleaf [2]: 5 (90% or more of herbicidal effect and crop phytotoxicity)
- herbicidal effect (index), Barnyardgrass [3]: 5 (90% or more of herbicidal effect and crop phytotoxicity)
- herbicidal effect (index), Slender Amaranth [4]: 5 (90% or more of herbicidal effect and crop phytotoxicity)
- herbicidal effect (index), Scirpus juncoides Roxb. [5]: 5 (90% or more of herbicidal effect and crop phytotoxicity)
- herbicidal effect (index), Monochoria vaginalis (Burm.f.) C.Presl [6]: 5 (90% or more of herbicidal effect and crop phytotoxicity)
- herbicidal effect (index), Echinochloa oryzicola Vasing [7]: 5 (90% or more of herbicidal effect and crop phytotoxicity)

Structure (SMILES): CC(CCn1c(C(F)(F)F)ccc(C(=O)c2cnn(C)c2O)c1=O)=C(F)F [IV-32]
- herbicidal effect (index), Green Foxtail [1]: 3 (50 to less than 70% of herbicidal effect and crop phytotoxicity)
- herbicidal effect (index), Velvetleaf [2]: 5 (90% or more of herbicidal effect and crop phytotoxicity)
- herbicidal effect (index), Barnyardgrass [3]: 4 (70 to less than 90% of herbicidal effect and crop phytotoxicity)
- herbicidal effect (index), Slender Amaranth [4]: 5 (90% or more of herbicidal effect and crop phytotoxicity)
- herbicidal effect, Scirpus juncoides Roxb. [5]: 5 (90% or more of herbicidal effect and crop phytotoxicity)
- herbicidal effect, Monochoria vaginalis (Burm. f.) C. Presl [6]: 5 (90% or more of herbicidal effect and crop phytotoxicity)
- herbicidal effect, Echinochloa oryzicola Vasing [7]: 5 (90% or more of herbicidal effect and crop phytotoxicity)

Structure (SMILES): Cn1c(C(F)(F)F)ccc(C(=O)C2=C(O)C3C=CC(C3)C2=O)c1=O (centres unmarked) [III-42]
- herbicidal effect (index), Green Foxtail [1]: 3 (50 to less than 70% of herbicidal effect and crop phytotoxicity)
- herbicidal effect (index), Velvetleaf [2]: 5 (90% or more of herbicidal effect and crop phytotoxicity)
- herbicidal effect (index), Barnyardgrass [3]: 4 (70 to less than 90% of herbicidal effect and crop phytotoxicity)
- herbicidal effect (index), Slender Amaranth [4]: 5 (90% or more of herbicidal effect and crop phytotoxicity)
- herbicidal effect, Scirpus juncoides Roxb. [5]: 5 (90% or more of herbicidal effect and crop phytotoxicity)
- herbicidal effect, Monochoria vaginalis (Burm. f.) C. Presl [6]: 5 (90% or more of herbicidal effect and crop phytotoxicity)
- herbicidal effect, Echinochloa oryzicola Vasing [7]: 5 (90% or more of herbicidal effect and crop phytotoxicity)

Structure (SMILES): CCCCCNn1c(C(F)(F)F)ccc(C(=O)C2=C(O)CCCC2=O)c1=O [I-165]
- herbicidal effect (index), Green Foxtail [1]: 3 (50 to less than 70% of herbicidal effect and crop phytotoxicity)
- herbicidal effect (index), Velvetleaf [2]: 5 (90% or more of herbicidal effect and crop phytotoxicity)
- herbicidal effect (index), Barnyardgrass [3]: 5 (90% or more of herbicidal effect and crop phytotoxicity)
- herbicidal effect (index), Slender Amaranth [4]: 5 (90% or more of herbicidal effect and crop phytotoxicity)
- herbicidal effect, Scirpus juncoides Roxb. [5]: 5 (90% or more of herbicidal effect and crop phytotoxicity)
- herbicidal effect, Monochoria vaginalis (Burm. f.) C. Presl [6]: 5 (90% or more of herbicidal effect and crop phytotoxicity)
- herbicidal effect, Echinochloa oryzicola Vasing [7]: 5 (90% or more of herbicidal effect and crop phytotoxicity)

Structure (SMILES): COn1c(C(F)(F)F)ccc(C(=O)C2=C(O)CCCC2=O)c1=O [I-202]
- herbicidal effect (index), Green Foxtail [1]: 5 (90% or more of herbicidal effect and crop phytotoxicity)
- herbicidal effect (index), Velvetleaf [2]: 5 (90% or more of herbicidal effect and crop phytotoxicity)
- herbicidal effect (index), Barnyardgrass [3]: 5 (90% or more of herbicidal effect and crop phytotoxicity)
- herbicidal effect (index), Slender Amaranth [4]: 5 (90% or more of herbicidal effect and crop phytotoxicity)
- herbicidal effect, Scirpus juncoides Roxb. [5]: 5 (90% or more of herbicidal effect and crop phytotoxicity)
- herbicidal effect, Monochoria vaginalis (Burm. f.) C. Presl [6]: 5 (90% or more of herbicidal effect and crop phytotoxicity)
- herbicidal effect, Echinochloa oryzicola Vasing [7]: 5 (90% or more of herbicidal effect and crop phytotoxicity)

Structure (SMILES): CCCn1c(C(F)(F)F)ccc(C(=O)C(C#N)=C(O)C2CC2)c1=O [V-21]
- herbicidal effect (index), Green Foxtail [1]: 5 (90% or more of herbicidal effect and crop phytotoxicity)
- herbicidal effect (index), Velvetleaf [2]: 5 (90% or more of herbicidal effect and crop phytotoxicity)
- herbicidal effect (index), Barnyardgrass [3]: 5 (90% or more of herbicidal effect and crop phytotoxicity)
- herbicidal effect (index), Slender Amaranth [4]: 5 (90% or more of herbicidal effect and crop phytotoxicity)
- herbicidal effect (index), Scirpus juncoides Roxb. [5]: 5 (90% or more of herbicidal effect and crop phytotoxicity)
- herbicidal effect (index), Monochoria vaginalis (Burm.f.) C.Presl [6]: 5 (90% or more of herbicidal effect and crop phytotoxicity)
- herbicidal effect (index), Echinochloa oryzicola Vasing [7]: 5 (90% or more of herbicidal effect and crop phytotoxicity)

Reference: patent publication US8076487B2, “Pyridone derivative and herbicide” (Kumiai Chemical Industry Co., Ltd., priority 2006, dated 2011)
